According to ChEMBL document CHEMBL4400580, “Expanded Structure-Activity Studies of Lipoxazolidinone Antibiotics” (ACS Med Chem Lett, 2019):
Values after ≈ are worked out from the molar mass of the structure shown.

Experiments:
[1] = test system: Acinetobacter baumannii; experiment: Antimicrobial activity against Acinetobacter baumannii ATCC 19606 measured after 16 hrs by broth microdilution method; format: functional; conditions: ATCC 19606 = CIP 70.34 = JCM 6841, 16 h
[2] = test system: Staphylococcus aureus; experiment: Antimicrobial activity against methicillin-sensitive Staphylococcus aureus ATCC 29213 measured after 16 hrs by broth microdilution method; format: functional; conditions: ATCC 29213, 16 h
[3] = test system: Staphylococcus aureus; experiment: Antimicrobial activity against methicillin-resistant Staphylococcus aureus ATCC 33591 measured after 16 hrs by broth microdilution method; format: functional; conditions: ATCC 33591, 16 h
[4] = test system: A549; experiment: Cytotoxicity against human A549 cells assessed as reduction in cell viability measured after 72 hrs by ATP-liteM luciferin-luciferase assay; format: cell-based; conditions: A549, 72 h
[5] = test system: Escherichia coli; experiment: Antimicrobial activity against Escherichia coli SQ110 DTC measured after 16 hrs by broth microdilution method; format: functional
[6] = test system: Escherichia coli; experiment: Antimicrobial activity against Escherichia coli SQ110 measured after 16 hrs by broth microdilution method; format: functional; conditions: SQ110, 16 h
[7] = test system: Escherichia coli; experiment: Antimicrobial activity against Escherichia coli SQ110 LPTD measured after 16 hrs by broth microdilution method; format: functional
[8] = Hemolysis in red blood cells (unknown origin) up to 40 uM; format: ADME, cell-based, Erythrocyte; conditions: read-out: Activity

Row | SMILES | MIC [1] | MIC [2] | MIC [3] | IC50 [4] | MIC [5] | MIC [6] | MIC [7] | hemolysis [8]
1 | CC(C)[C@@H]1O/C(=C/C(=O)CCc2ccccc2)NC1=O | 128 µg/mL (≈ 468 µM) | 8 µg/mL (≈ 29.3 µM) | 4 µg/mL (≈ 14.6 µM) |  |  |  |  | 
2 | Cc1ccc(CCC(=O)/C=C2\NC(=O)[C@H](C(C)C)O2)cc1 |  | 16 µg/mL (≈ 55.7 µM) | 8 µg/mL (≈ 27.8 µM) |  |  |  |  | 
3 | Cc1ccc(CC(=O)/C=C2\NC(=O)[C@H](C(C)C)O2)cc1 | 128 µg/mL (≈ 468 µM) | 4 µg/mL (≈ 14.6 µM) | 2 µg/mL (≈ 7.32 µM) |  |  |  |  | 
4 | CC(C)[C@@H]1O/C(=C/C(=O)CCc2ccc(C(F)(F)F)cc2)NC1=O |  | 2 µg/mL (≈ 5.86 µM) | 0.5 µg/mL (≈ 1.46 µM) |  |  |  |  | 
5 | COc1ccc(OC)c(CC(=O)/C=C2\NC(=O)[C@H](C(C)C)O2)c1 |  | 16 µg/mL (≈ 50.1 µM) | 4 µg/mL (≈ 12.5 µM) |  |  |  |  | 
6 | CC(C)[C@@H]1O/C(=C/C(=O)Cc2ccc(C#N)cc2)NC1=O |  | 8 µg/mL (≈ 28.1 µM) | 4 µg/mL (≈ 14.1 µM) |  |  |  |  | 
7 | CC(C)[C@@H]1O/C(=C/C(=O)Cc2ccc(OC(F)(F)F)cc2)NC1=O |  | 2 µg/mL (≈ 5.83 µM) | 0.5 µg/mL (≈ 1.46 µM) | 14 µg/mL (≈ 40.8 µM) | 0.06 µg/mL (≈ 0.175 µM) | > 128 µg/mL | 32 µg/mL (≈ 93.2 µM) | < 1%
8 | CC(C)[C@@H]1O/C(=C/C(=O)Cc2ccc(Cl)cc2)NC1=O | 64 µg/mL (≈ 218 µM) | 2 µg/mL (≈ 6.81 µM) | 0.5 µg/mL (≈ 1.7 µM) |  |  |  |  | 
9 | CC(C)[C@@H]1O/C(=C/C(=O)CCCCCc2ccccc2)NC1=O | 128 µg/mL (≈ 406 µM) | 4 µg/mL (≈ 12.7 µM) | 2 µg/mL (≈ 6.34 µM) |  |  |  |  | 
10 | CC(C)[C@@H]1O/C(=C/C(=O)Cc2ccc(F)cc2)NC1=O |  | 4 µg/mL (≈ 14.4 µM) | 2 µg/mL (≈ 7.21 µM) |  |  |  |  | 
11 | CC(C)[C@@H]1O/C(=C/C(=O)Cc2cc(F)ccc2F)NC1=O |  | 16 µg/mL (≈ 54.2 µM) | 8 µg/mL (≈ 27.1 µM) |  |  |  |  | 
12 | COc1ccc(OC)c(CCC(=O)/C=C2\NC(=O)[C@H](C(C)C)O2)c1 | > 128 µg/mL | 4 µg/mL (≈ 12 µM) | 8 µg/mL (≈ 24 µM) |  |  |  |  | 
13 | CC(C)[C@@H]1O/C(=C/C(=O)CCc2ccc(Cl)cc2)NC1=O | 128 µg/mL (≈ 416 µM) | 2 µg/mL (≈ 6.5 µM) | 0.5 µg/mL (≈ 1.62 µM) |  |  |  |  | 
14 | CC(=O)NC[C@H]1CN(c2ccc(N3CCOCC3)c(F)c2)C(=O)O1 [LINEZOLID] | 64 µg/mL (≈ 190 µM) | 1 µg/mL (≈ 2.96 µM) | 0.5 µg/mL (≈ 1.48 µM) |  | 2 µg/mL (≈ 5.93 µM) | > 128 µg/mL | 32 µg/mL (≈ 94.9 µM) | 
15 | CCCCCCCCCC(=O)/C=C1\NC(=O)[C@H](C(C)C)O1 |  | 0.5 µg/mL (≈ 1.69 µM) |  | 10 µg/mL (≈ 33.8 µM) | 1 to 2 µg/mL (≈ 3.38 to 6.77 µM) | > 128 µg/mL | 32 µg/mL (≈ 108 µM) | < 1%
16 | CC(C)[C@@H]1O/C(=C/C(=O)CCc2ccc(Br)cc2)NC1=O | 128 µg/mL (≈ 363 µM) | 2 µg/mL (≈ 5.68 µM) | 1 µg/mL (≈ 2.84 µM) |  |  |  |  | 
17 | CC(C)[C@@H]1O/C(=C/C(=O)CCc2ccc(F)cc2)NC1=O |  | 16 µg/mL (≈ 54.9 µM) | 8 µg/mL (≈ 27.5 µM) |  |  |  |  | 
18 | CC(C)[C@@H]1O/C(=C/C(=O)Cc2ccc(C(C)(C)C)cc2)NC1=O |  | 4 µg/mL (≈ 12.7 µM) | 2 µg/mL (≈ 6.34 µM) |  |  |  |  | 
19 | CC(C)[C@@H]1O/C(=C/C(=O)Cc2cccc(Br)c2)NC1=O |  | 16 µg/mL (≈ 47.3 µM) | 2 µg/mL (≈ 5.91 µM) |  |  |  |  | 
20 | CC(C)[C@@H]1O/C(=C/C(=O)Cc2cc(F)c(F)c(F)c2)NC1=O |  | 8 µg/mL (≈ 25.5 µM) | 4 µg/mL (≈ 12.8 µM) |  |  |  |  | 
21 | Cc1ccc(C)c(CC(=O)/C=C2\NC(=O)[C@H](C(C)C)O2)c1 |  | 16 µg/mL (≈ 55.7 µM) | 8 µg/mL (≈ 27.8 µM) |  |  |  |  | 
22 | CC(C)[C@@H]1O/C(=C/C(=O)Cc2ccc([N+](=O)[O-])cc2)NC1=O |  | 64 µg/mL (≈ 210 µM) | 8 µg/mL (≈ 26.3 µM) |  |  |  |  | 
23 | CC(C)[C@@H]1O/C(=C/C(=O)Cc2ccc(C(F)(F)F)cc2)NC1=O | 128 µg/mL (≈ 391 µM) | 4 µg/mL (≈ 12.2 µM) | 2 µg/mL (≈ 6.11 µM) |  |  |  |  | 
24 | CC(C)[C@@H]1O/C(=C/C(=O)Cc2ccccc2)NC1=O |  | 4 µg/mL (≈ 15.4 µM) | 2 µg/mL (≈ 7.71 µM) |  | 2 µg/mL (≈ 7.71 µM) | > 128 µg/mL | 32 µg/mL (≈ 123 µM) | 
25 | CC(C)[C@@H]1O/C(=C/C(=O)Cc2ccc(Br)cc2)NC1=O | 64 µg/mL (≈ 189 µM) | 1 µg/mL (≈ 2.96 µM) | 0.5 µg/mL (≈ 1.48 µM) |  |  |  |  | 
26 | CC(C)[C@@H]1O/C(=C/C(=O)Cc2ccccc2Br)NC1=O |  | 16 µg/mL (≈ 47.3 µM) | 8 µg/mL (≈ 23.7 µM) |  |  |  |  | 
27 | CC(C)[C@@H]1O/C(=C/C(=O)Cc2ccc(N)cc2)NC1=O |  | > 128 µg/mL | 64 µg/mL (≈ 233 µM) |  |  |  |  | 
28 | CC(C)[C@@H]1O/C(=C/C(=O)CCc2ccc(C(C)(C)C)cc2)NC1=O |  | 2 µg/mL (≈ 6.07 µM) | 0.25 µg/mL (≈ 0.759 µM) |  |  |  |  | 
29 | CC(C)[C@@H]1O/C(=C/C(=O)Cc2ccc(-c3ccccc3)cc2)NC1=O | > 128 µg/mL | 0.25 µg/mL (≈ 0.745 µM) | 0.125 µg/mL (≈ 0.373 µM) |  | 0.25 µg/mL (≈ 0.745 µM) | > 128 µg/mL | 32 µg/mL (≈ 95.4 µM) | 
